The text below walks through data of publication PMC5577450, “An ancient FMRFamide-related peptide–receptor pair induces defence behaviour in a brachiopod larva” (Open Biology, 2017).

In experiment [1] the test system is Terebratalia transversa larvae. Kind of experiment: Behavioural assay: full contraction / defence stance of larvae exposed to synthetic peptides. In kind it is in vivo. The conditions noted are these: for necessary concentration to induce defense stance (full contraction): > 50 stands for 'no contraction at 50 µM'; for contraction reaction of larvae (in words): at 50 µmol l^−1 (maximum concentration cutoff). On the procedure:
The reaction of larvae to synthetic peptides (GenScript) that were predicted from the prepropeptide sequence were tested and compared with the reactions to peptides with non-native modifications. Freely swimming larvae were exposed to different concentrations of peptides in 4-well and 6-well plates (1 ml and 5 ml total volume per well, respectively), and their reactions were observed under a stereomicroscope. To determine the efficiency of the native and modified peptides, the larvae were tested for the necessary minimum concentration at which they fully contracted and spread their chaetae, using 30–100 larvae in each test. To get an estimation of the peptide concentration that was necessary to induce a complete contraction, the larvae were initially exposed to 50 nmol l^−1 of the respective peptide and the concentration was then increased stepwise until the larvae fully contracted or a concentration of 50 µmol l^−1 was reached as an upper cutoff. […] To test the influence of the peptides on the vertical distribution of larvae in a water column, freely swimming larvae (50–100 per treatment) were exposed to peptides in transparent 4.5 ml cuvettes. About 60 s after addition of the peptides, the larvae were recorded with a digital camera (DMK 31AU03 camera, The Imaging Source) in a darkened box with artificial top-illumination. All experiments were repeated at least once with a different batch of larvae from another fertilization and the outcome was averaged. Control animals were exposed to DMSO only.

Experiment [2] concerns T. transversa FLRFamide receptor. The experiment can be described thus: Receptor deorphanization: luminescence response of transfected CHO-K1 cells. In kind it is cell-based, Terebratalia transversa. The conditions noted are these: fixed peptide concentration 1 µmol l^−1 (figure 4a). The text has this:
For the receptor deorphanization, the procedure was used as described by Bauknecht & Jékely: full-length open reading frames of the receptor candidate sequences were amplified by PCR from cDNA of mixed larval stages. The forward primers included a 5′ attachment consisting of a spacer, an EcoR1 or BamH1 restriction site and a Kozak sequence and the reverse primers included a 5′ attachment consisting of a spacer and a Not1 restriction site (see the electronic supplementary material for primer sequences). […] The luminescence response of the transfected cells was measured in a plate reader (BioTek Synergy Mx or Synergy H4, BioTek, Winooski, USA) over 45 s after addition of the neuropeptides. […] Dose–response curves were calculated using PRISM 6 (GraphPad, La Jolla, USA) and normalized against the upper plateau values (100% activation).
Figure 4. Luminescence response of T. transversa FLRFamide receptor expressing CHO-K1 cells to different peptides. (a) Relative luminescence of T. transversa FLRFamide receptor expressing cells after exposure to different peptides with a fixed concentration of 1 µmol l^−1. […] Luminescence values are given relative to maximum luminescence (max = 1). RLU relative luminescence.

Experiment [3] has as its system late chaetous larvae of Novocrania anomala. The experiment can be described thus: Behavioural test of the orthologue peptide for a defence reaction. It counts as in vivo. The conditions noted are these: no defence reaction even above this concentration.
The subject of experiment [4] is late chaetous larvae of P. dumerilii. Described as above. In kind it is in vivo, Platynereis dumerilii. The conditions noted are these: no defence reaction even above this concentration.

Chain of T. transversa FLRFamide receptor (as listed by the source): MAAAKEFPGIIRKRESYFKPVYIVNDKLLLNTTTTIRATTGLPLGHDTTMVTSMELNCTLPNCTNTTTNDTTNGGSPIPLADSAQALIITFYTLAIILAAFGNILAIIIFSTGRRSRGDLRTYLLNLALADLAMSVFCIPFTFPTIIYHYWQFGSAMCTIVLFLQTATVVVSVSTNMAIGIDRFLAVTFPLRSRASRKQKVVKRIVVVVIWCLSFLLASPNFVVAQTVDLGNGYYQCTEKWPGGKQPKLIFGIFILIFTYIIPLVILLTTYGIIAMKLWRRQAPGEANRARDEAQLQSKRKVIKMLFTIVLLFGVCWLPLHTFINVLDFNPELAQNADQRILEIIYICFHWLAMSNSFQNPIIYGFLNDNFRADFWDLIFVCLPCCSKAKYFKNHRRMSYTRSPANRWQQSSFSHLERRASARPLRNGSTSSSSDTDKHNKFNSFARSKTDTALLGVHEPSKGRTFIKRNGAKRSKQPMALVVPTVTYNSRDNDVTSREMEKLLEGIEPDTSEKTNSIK

“AFLRWamide [modified AFLRFamide with amidated C-terminal tryptophan]”: the “necessary concentration to induce defense stance (full contraction)” value in experiment [1] (batch 1) and in experiment [1] (batch 2) was 20 µM each time. The “concentration triggering full contraction / defence stance (minimum necessary concentration)” value in experiment [1] (cutoff 50 µmol l^−1) stood at 20 µmol/L. Besides, the “reduction of effectiveness on changing the amidated C-terminal phenylalanine to an amidated tryptophan” value in experiment [1] (relative to the corresponding Famide peptide) was “about 10 fold”.

As for “AFLRLamide [modified AFLRFamide with C-terminal leucine]”, the “contraction reaction of larvae (in words)” value in experiment [1] is given as “no reaction at all”.

With “DFLRLamide [modified DFLRFamide with C-terminal leucine]”, the “contraction reaction of larvae (in words)” value in experiment [1] was “very weak contraction”. In addition, the “luminescence response of FLRFamide receptor expressing CHO-K1 cells (in words)” value in experiment [2] is on record as “barely higher than the negative control”.

As to “YMRFamide [orthologue of AFLRFamide/DFLRFamide]”, the “necessary concentration to induce defense stance (full contraction)” value came out at 10 µM in experiment [1] (batch 1) and 15 µM in experiment [1] (batch 2). Moreover, in experiment [3], the “concentration inducing a defence reaction” value was “above 50 µmol l^−1”.

Regarding “FMRFamide [orthologue of AFLRFamide/DFLRFamide in P. dumerilii]”, the “concentration inducing a defence reaction” value in experiment [4] was “above 50 µmol l^−1”.
